Measured values reported in PMC7486443, “Generation of Phenothiazine with Potent Anti-TLK1 Activity for Prostate Cancer Therapy” (iScience, 2020).

Assays:
Test in all cases: biochemical
Design in all cases: DiscoverX KINOMEscan scanMAX competition binding panel, single concentration, percent of control; remaining binding: dose or concentration left out as unconfirmed
Details in all cases: KINOMEscan binding, percent of control; read-out: Table S4_SCANMAX REPORT - related to Fig. 1 / Percent Control
[1] = molecular target: RET (Homo sapiens, UniProt P07949)
Description: (§1) Certain PTH are potent inhibitors of TLK1 ([Ronald et al., 2013]), and by inference TLK2, as these proteins must homo- and hetero-dimerize for full activation ([Mortuza et al., 2018]), in addition to being highly similar in sequence and structure, and thus similarly targetable. […] Two noteworthy observations are that PTHs are structurally different from many known ATP competitive inhibitors, and that J54 was carefully designed based on considerations reported previously for the THD—the Kinomescan has confirmed that J54 is specific to TLKs. We should point out that although PTH were the first reported inhibitors of TLKs ([Ronald et al., 2013]), other inhibitors particularly of TLK2 have since been reported ([Kim et al., 2016]), some based on structure docking ([Mortuza et al., 2018]), although neither their potency and effects in vivo nor their potential off-target effects have not been reported as they were selected from libraries of kinase inhibitors. Supplementary file mmc2.xlsx: Table S4. SCANMAX Table, Related to Figure 1 Kinomescan of J54 inhibitory activity on human kinases.

[2] = molecular target: PLK4 (Homo sapiens, UniProt O00444)
Description: as §1

[3] = molecular target: T1, JNK1 (Homo sapiens, UniProt P45983)
T1 construct: gene MAPK8
Description: as §1

[4] = molecular target: T2, MEK3 (Homo sapiens, UniProt P46734)
T2 construct: gene MAP2K3
Description: as §1

[5] = molecular target: WNK4 (Homo sapiens, UniProt Q96J92)
Description: as §1

[6] = molecular target: T3, PFTK1 (Homo sapiens, UniProt O94921)
T3 construct: gene CDK14
Description: as §1

[7] = molecular target: T4, TIE2 (Homo sapiens, UniProt Q02763)
T4 construct: gene TEK
Description: as §1

[8] = molecular target: VRK2 (Homo sapiens, UniProt Q86Y07)
Description: as §1

[9] = molecular target: IRAK1 (Homo sapiens, UniProt P51617)
Description: as §1

[10] = molecular target: T5, IKK-alpha (Homo sapiens, UniProt O15111)
T5 construct: gene CHUK
Description: as §1

[11] = molecular target: BMPR1A (Homo sapiens, UniProt P36894)
Description: as §1

[12] = molecular target: MYO3A (Homo sapiens, UniProt Q8NEV4)
Description: as §1

[13] = molecular target: T6, LOK (Homo sapiens, UniProt O94804)
T6 construct: gene STK10
Description: as §1

[14] = molecular target: CDKL3 (Homo sapiens, UniProt Q8IVW4)
Description: as §1

[15] = molecular target: LATS2 (Homo sapiens, UniProt Q9NRM7)
Description: as §1

[16] = molecular target: HCK (Homo sapiens, UniProt P08631)
Description: as §1

[17] = molecular target: WNK1 (Homo sapiens, UniProt Q9H4A3)
Description: as §1

[18] = molecular target: T7, RSK2(Kin.Dom.1-N-terminal) (Homo sapiens, UniProt P51812)
T7 construct: gene RPS6KA3; Kin.Dom.1-N-terminal
Description: as §1

[19] = molecular target: T8, MEK1 (Homo sapiens, UniProt Q02750)
T8 construct: gene MAP2K1
Description: as §1

Sequence of WNK4 (Q96J92 whole entry): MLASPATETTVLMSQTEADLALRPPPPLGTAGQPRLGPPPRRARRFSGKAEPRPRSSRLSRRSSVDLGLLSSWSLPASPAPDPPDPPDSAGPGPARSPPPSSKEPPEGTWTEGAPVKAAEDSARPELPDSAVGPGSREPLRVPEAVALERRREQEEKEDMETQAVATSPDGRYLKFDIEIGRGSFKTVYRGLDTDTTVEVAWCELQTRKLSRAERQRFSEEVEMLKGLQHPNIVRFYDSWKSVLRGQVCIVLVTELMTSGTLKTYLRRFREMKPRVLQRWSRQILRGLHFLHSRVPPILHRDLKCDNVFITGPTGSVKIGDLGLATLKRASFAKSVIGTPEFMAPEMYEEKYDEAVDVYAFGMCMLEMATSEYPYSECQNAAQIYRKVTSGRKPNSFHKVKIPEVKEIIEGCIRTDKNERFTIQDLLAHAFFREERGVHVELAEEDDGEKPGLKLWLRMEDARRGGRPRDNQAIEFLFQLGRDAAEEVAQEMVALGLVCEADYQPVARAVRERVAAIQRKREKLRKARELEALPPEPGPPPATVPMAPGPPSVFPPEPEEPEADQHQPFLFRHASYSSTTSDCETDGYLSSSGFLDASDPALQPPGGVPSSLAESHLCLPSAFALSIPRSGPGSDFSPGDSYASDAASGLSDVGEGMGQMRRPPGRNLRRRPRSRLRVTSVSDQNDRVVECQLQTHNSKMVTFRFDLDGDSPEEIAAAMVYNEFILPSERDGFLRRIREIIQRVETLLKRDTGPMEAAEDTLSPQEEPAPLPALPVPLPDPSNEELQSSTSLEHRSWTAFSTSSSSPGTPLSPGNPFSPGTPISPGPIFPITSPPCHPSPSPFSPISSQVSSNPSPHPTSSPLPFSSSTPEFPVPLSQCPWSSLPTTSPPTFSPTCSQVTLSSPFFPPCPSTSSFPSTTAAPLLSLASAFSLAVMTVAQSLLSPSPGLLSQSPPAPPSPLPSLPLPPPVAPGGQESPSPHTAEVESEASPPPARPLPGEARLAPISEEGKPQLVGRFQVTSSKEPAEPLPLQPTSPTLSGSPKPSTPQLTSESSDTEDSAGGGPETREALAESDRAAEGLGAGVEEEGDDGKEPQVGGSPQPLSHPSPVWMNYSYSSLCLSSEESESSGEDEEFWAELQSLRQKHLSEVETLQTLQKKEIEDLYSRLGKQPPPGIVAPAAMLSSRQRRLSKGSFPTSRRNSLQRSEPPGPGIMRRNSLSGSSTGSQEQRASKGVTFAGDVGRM
Sequence of VRK2 (Q86Y07 whole entry): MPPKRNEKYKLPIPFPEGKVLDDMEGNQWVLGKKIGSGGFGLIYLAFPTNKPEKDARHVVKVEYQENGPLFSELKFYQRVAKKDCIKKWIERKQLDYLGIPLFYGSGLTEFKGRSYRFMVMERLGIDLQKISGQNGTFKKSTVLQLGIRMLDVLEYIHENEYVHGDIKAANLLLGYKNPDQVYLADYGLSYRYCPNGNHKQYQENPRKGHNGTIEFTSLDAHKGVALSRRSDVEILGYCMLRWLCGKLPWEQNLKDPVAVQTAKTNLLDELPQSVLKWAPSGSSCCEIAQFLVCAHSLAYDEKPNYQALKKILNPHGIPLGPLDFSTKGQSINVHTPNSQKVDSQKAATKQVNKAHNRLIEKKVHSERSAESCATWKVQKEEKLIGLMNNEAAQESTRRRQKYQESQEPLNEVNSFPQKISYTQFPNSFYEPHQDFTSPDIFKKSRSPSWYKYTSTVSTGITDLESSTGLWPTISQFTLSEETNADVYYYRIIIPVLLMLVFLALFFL
Sequence of IRAK1 (P51617 whole entry): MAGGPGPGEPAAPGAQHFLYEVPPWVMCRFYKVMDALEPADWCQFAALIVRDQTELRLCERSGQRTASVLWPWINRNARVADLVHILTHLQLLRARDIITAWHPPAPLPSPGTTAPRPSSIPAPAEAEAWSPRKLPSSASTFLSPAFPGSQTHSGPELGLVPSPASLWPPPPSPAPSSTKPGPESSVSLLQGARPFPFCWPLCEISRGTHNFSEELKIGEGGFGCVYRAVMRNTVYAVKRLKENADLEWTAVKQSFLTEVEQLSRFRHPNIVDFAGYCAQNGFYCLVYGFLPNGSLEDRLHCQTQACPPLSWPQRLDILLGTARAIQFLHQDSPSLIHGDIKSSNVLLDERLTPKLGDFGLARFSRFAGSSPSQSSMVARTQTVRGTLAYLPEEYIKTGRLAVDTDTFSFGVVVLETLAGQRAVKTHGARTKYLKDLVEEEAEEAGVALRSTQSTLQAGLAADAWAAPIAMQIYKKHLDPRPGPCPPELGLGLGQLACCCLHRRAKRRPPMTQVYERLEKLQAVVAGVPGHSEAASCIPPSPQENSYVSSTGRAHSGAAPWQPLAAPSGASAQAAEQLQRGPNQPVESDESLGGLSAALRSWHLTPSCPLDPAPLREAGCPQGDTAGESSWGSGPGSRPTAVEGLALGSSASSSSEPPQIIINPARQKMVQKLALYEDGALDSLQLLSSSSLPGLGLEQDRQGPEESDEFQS
T8 sequence (Q02750 whole entry): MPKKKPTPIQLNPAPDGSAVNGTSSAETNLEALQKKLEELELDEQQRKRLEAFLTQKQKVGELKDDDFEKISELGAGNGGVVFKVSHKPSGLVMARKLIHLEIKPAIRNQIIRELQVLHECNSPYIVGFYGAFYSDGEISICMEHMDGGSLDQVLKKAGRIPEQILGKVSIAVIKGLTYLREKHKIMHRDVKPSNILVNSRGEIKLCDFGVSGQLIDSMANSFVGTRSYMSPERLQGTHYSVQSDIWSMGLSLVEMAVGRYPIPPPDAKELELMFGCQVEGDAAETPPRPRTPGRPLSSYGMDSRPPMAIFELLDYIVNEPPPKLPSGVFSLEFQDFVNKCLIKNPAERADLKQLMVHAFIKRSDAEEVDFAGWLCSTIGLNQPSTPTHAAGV
T5 sequence (O15111 whole entry): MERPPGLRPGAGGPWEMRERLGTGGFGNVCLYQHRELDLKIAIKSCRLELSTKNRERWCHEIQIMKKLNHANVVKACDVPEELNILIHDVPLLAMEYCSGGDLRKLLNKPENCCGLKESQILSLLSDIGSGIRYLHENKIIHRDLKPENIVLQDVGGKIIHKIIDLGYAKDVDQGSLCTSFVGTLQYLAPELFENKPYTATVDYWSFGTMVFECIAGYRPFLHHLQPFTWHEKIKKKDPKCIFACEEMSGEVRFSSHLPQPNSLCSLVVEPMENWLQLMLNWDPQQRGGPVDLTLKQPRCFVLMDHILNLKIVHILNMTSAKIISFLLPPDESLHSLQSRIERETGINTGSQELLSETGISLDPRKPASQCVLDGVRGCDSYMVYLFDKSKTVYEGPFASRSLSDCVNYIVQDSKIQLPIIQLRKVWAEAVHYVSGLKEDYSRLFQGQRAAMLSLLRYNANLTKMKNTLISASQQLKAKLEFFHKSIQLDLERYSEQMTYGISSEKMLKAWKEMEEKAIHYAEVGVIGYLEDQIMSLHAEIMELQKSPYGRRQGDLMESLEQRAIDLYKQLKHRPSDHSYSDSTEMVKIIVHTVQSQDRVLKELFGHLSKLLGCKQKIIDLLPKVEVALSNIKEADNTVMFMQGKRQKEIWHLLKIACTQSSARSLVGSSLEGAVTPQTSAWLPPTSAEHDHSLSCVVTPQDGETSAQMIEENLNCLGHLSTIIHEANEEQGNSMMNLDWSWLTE
Sequence of CDKL3 (Q8IVW4 whole entry): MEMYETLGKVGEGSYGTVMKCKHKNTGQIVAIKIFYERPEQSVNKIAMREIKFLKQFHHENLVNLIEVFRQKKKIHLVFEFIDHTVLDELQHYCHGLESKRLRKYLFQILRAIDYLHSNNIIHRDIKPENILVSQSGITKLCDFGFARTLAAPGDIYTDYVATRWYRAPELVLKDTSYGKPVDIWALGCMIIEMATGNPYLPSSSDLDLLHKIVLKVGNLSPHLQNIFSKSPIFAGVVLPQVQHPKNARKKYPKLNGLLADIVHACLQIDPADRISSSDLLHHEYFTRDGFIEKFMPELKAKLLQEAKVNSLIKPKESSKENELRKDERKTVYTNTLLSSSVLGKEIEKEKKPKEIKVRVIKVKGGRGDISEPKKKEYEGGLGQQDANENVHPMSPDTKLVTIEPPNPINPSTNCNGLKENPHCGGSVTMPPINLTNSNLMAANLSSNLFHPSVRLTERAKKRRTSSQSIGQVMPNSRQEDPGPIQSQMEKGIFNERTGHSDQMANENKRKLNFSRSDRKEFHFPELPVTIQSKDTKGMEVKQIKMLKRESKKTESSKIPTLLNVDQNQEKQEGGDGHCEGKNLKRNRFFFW
T1 sequence (P45983 whole entry): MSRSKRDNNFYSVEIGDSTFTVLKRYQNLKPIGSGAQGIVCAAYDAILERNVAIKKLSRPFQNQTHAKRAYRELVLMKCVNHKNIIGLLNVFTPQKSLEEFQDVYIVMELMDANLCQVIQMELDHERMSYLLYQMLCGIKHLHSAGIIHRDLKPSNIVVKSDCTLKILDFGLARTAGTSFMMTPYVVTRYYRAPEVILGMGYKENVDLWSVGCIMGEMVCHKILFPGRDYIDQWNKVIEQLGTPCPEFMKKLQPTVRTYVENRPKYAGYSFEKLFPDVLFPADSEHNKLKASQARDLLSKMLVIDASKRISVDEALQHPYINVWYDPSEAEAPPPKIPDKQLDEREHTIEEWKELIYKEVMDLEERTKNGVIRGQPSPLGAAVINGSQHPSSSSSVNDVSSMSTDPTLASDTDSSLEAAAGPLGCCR
T2 sequence (P46734 whole entry): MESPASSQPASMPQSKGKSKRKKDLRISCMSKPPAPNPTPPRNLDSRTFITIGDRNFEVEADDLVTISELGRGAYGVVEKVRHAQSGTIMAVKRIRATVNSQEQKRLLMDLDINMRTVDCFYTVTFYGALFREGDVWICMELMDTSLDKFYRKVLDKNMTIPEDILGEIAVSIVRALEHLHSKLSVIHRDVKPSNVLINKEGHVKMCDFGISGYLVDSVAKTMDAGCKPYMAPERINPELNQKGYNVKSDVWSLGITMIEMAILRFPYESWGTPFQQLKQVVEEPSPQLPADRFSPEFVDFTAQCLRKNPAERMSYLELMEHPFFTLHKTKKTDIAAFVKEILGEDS

Compound `c1ccc2c(c1)Sc1ccccc1N2CCN1CCOCC1` [J54] has a remaining binding [1] of 98%, a remaining binding [2] of 85% and a remaining binding [3] of 82%. The remaining binding [4] was 100%, the remaining binding [5] was 91% and the remaining binding [6] was 100%. For the same compound, the remaining binding [7] was 76%, the remaining binding [8] was 70% and the remaining binding [9] was 100%. The remaining binding [10] was 100%, the remaining binding [11] was 72% and the remaining binding [12] was 100%. For the same compound, the remaining binding [13] was 100%, the remaining binding [14] was 100% and the remaining binding [15] was 90%. The remaining binding [16] was 100%, the remaining binding [17] was 94% and the remaining binding [18] was 97%. For the same compound, the remaining binding [19] was 100%.
